Laboratory results as given in article PMC11589570, “Critical assessment of LC3/GABARAP ligands used for degrader development and ligandability of LC3/GABARAP binding pockets” (Nature Communications, 2024).

Experiments:
LC3 = target: LC3; parameters: method as in Dong et al.; details: higher protein and compound concentrations; ref Dong et al.; read-out: Kd (ITC); cited from earlier work
[1] = target: T1, NanoLuc-fusion full-length LC3B (Homo sapiens, UniProt Q9GZQ8); assay: NanoBRET cellular target engagement assay in HEK293T cells; format: cell-based; details: LC3B; 1 µM tracer; compound 4 for tracer 16, compound 3 for tracer 17
T1 construct: a fluorescent donor (in this case full length LC3A and LC3B); expressed in transfected cells; host or cells: HEK293T (ATCC; CRL-11268)
Protocol: (§1) NanoBRET cellular target engagement assay: Constructs contained the cDNA of full-length LC3A and LC3B cloned in frame with an N-terminal NanoLuc-fusion. Plasmids were transfected into HEK293T (ATCC; CRL-11268) cells using FuGENE HD (Promega, E2312) and proteins were allowed to express for 20 h. 10O5 and 8F20-based tracers were titrated to the protein as depicted in Supplementary Fig. 4d. For competition experiments, 1 µM of the tracers was pipetted into white 384-well plates (Greiner 781 207) using an Echo 550 acoustic dispenser (Labcyte) containing LC3A/LC3B expressing transfected cells at a density of 2.5 × 10^5 cells/mL in Opti-MEM without phenol red (Life Technologies). The system was allowed to equilibrate for 2 h at 37 °C and 5% CO2 prior to BRET measurements. To measure BRET, NanoBRET NanoGlo Substrate + Extracellular NanoLuc Inhibitor (Promega, N2540) was added as per the manufacturer’s protocol, and filtered luminescence was measured on a PHERAstar plate reader (BMG Labtech) equipped with a luminescence filter pair (450 nm BP filter (donor) and 610 nm LP filter (acceptor)). Competitive displacement data were then plotted using GraphPad Prism 9.3 software using a normalized 3-parameter curve fit. A detailed step-by-step protocol for this assay is described in Schwalm..

[2] = target: T2, NanoLuc-fusion full-length LC3A (Homo sapiens, UniProt Q9H492); assay: as above; format: cell-based; details: LC3A; 1 µM tracer; compound 4 for tracer 16, compound 3 for tracer 17
T2 construct: a fluorescent donor (in this case full length LC3A and LC3B); expressed in transfected cells; host or cells: HEK293T (ATCC; CRL-11268)
Protocol: as §1

[3] = system: live cells of the growth assay; assay: Analysis of images of the live cell growth assay (cell morphology); format: cell-based; details: consistent with G2/M arrest
Protocol: Using RPE1 and U2OS cells, cell growth was monitored in live cells over a time course of 72 h after treatment with the respective compounds.
Cell growth assay: Cell confluence (phase) from RPE1 (hTERT RPE-1, ATCC CLR_4000) or U2OS (ATCC, HTB-96) cell lines were monitored over time with the IncuCyte S3 (Sartiorius, Germany) in 384-well plates in 50 ul DMEM media, supplemented with 10% Fetal Bovine Serum (FBS) 1% penicillin/Streptomycin and incubated 24 h before treatment. […] Cell confluence is represented as % of area covered by cells. Each data point represents the average ratio or confluence obtained from three individual wells of the plate.

GABARAPL2 = GABARAPL2 (Homo sapiens, UniProt P60520); assay: biochemical
Chain of GABARAPL2 (P60520 whole entry): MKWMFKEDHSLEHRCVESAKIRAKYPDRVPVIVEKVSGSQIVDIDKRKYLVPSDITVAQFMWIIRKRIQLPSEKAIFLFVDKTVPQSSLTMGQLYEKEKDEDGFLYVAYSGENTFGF

SMILES | Kd (LC3) | NanoBRET signal / tracer displacement [1] | NanoBRET signal / tracer displacement [2] | cell morphology in live cell images [3] | Kd (GABARAPL2)
Cc1ccc(C(=O)N(CCCN)[C@@H](c2nc3cc(Cl)ccc3c(=O)n2Cc2ccccc2)C(C)C)cc1 [compound 3, (R)-N-(3-aminopropyl)-N-(1-(3-benzyl-7-chloro-4-oxo-3,4-dihydroquinazolin-2-yl)−2-methylpropyl)−4-methylbenzamide] | ~12 µM | No displacement | No displacement | increased number of rounded cells | 
O=C1Nc2ccc(I)cc2C1=Cc1cc(Br)c(O)c(Br)c1 [compound 4] |  | No displacement | No displacement |  | 15 to 30 µM
